Measurements published in patent publication US10226409B2, “Pyruvate and related α-keto carboxylates as novel adjuvants in the treatment of post tooth whitening sensitivity and the tissue protective effect of pyruvate on the oral soft tissue” (priority 2016, dated 2019).

Experiments:
[1] = In-office laser tooth whitening, desensitizer applied post treatment: tooth sensitivity; type: in vivo, human; conditions: for duration of tooth sensitivity: confirmed by follow up phone calls; for subjects experiencing tooth sensitivity after application of the desensitizer: 5 subjects per group
Description: In-office laser tooth whitening procedure using Biolase EZ lase, 7W diode laser, and the LaserWhite *20 whitening gel kit.
A total of 15 candidates were selected and screened (for the presence of active decay, faulty restorations, cervical abrasion and attrition, enamel cracks) for the whitening procedure.
The arch has been divided in 4 quadrants, K1 (upper right), K2 (upper left), K3 (lower left), K4 (lower right).
The amount of 400 Jules has been applied per quadrant per application, in two separate applications. (total of 800 Jules per quadrant).
The candidates were assigned to 3 groups.
Group 1 is considered the control (C1), receiving desensitizer (post treatment) containing potassium nitrate.
Group 2, a second control group (C2), received as desensitizer (post treatment) stannous fluoride.
Group 3 (C3) received as desensitizer sodium pyruvate 99% in crystalline form. (applied over the gingival, gingival margin and DEJ).

[2] = cited from earlier work
[3] = test system: mammalian cellular systems; conditions: applied exogenously in concentrations up to about 10 mM, short term studies; cited from earlier work
[4] = test system: human and bovine endothelial cells; conditions: cited from earlier work
[5] = test system: isolated liver mitochondria; conditions: 1 mM pyruvate; cited from earlier work
[6] = test system: isolated cardiomyocytes; conditions: 1-10 millimolar; cited from earlier work
[7] = test system: oxidative stress; conditions: cited from earlier work
[8] = intracoronary; cited from earlier work
[9] = cardioplegia; cited from earlier work
[10] = Gingival lesions after tooth whitening, treated only with sodium pyruvate; type: in vivo, human
Description: In addition, overall 6 patients presented with gingival lesions, manifested by burning sensation on the gingival margin, and visually expressed by white areas on the gingival margin.

[11] = R. Bünger et al., unpublished observations; cited from earlier work

## O=[N+]([O-])[O-].[K+] [potassium nitrate]
[1]
  duration of tooth sensitivity: up to 24 hours
[1]; end of whitening procedure
  subjects experiencing tooth sensitivity after application of the desensitizer: 3 out of 5

## CC(=O)C(=O)O [pyruvate]
[2]; pH 7.4, 37° C.
  rate constant of scavenging of peroxynitrite: 88 to 100 mol⁻¹ s⁻¹
[2]; physiological pyruvate anion
  reaction with peroxynitrite faster than with H2O2: about 40 times
[2]; pyruvate decarboxylates to acetate
  speed of reaction with peroxynitrite relative to that with H2O2: about one order of magnitude faster
[3]
  cytotoxicity: virtually no or little cytotoxicity
[4]; 30 min pulse of 0.5 mM H2O2
  bc1-2/bax ratio: increasing the bc1-2/bax ratio
  cellular glutathione pool: stabilizing the cellular glutathione pool
  cellular viability and survival: dose-dependently enhanced cellular viability and survival
[4]; H2O2-treated endothelial cells
  phosphorylated p38 mitogen activated kinase: prevented the accumulation of phosphorylated p38 mitogen activated kinase
  phosphorylation of ERK1/2: transiently increased phosphorylation of ERK1/2
[5]
  dissociation of cytochrome C: prevented the dissociation of cytochrome C
  expression of antiapoptotic bc1-2: enhanced expression of antiapoptotic bc1-2
  mitochondrial respiration: stabilized respiration
[6]
  calcium transients: improves the calcium transients
  cytotoxicity: without apparent cytotoxicity
  mitochondrial stability and mitochondrial Δϕ: increases mitochondrial stability and mitochondrial Δϕ
[7]
  pyruvate level of optimum efficacy: 2 to 5 mM
  pyruvate level required for beneficial effects: ≥ 0.5 mM
[8]
  efficacy: beneficial efficacy
  toxicity: no obvious toxicity
[9]
  mortality and morbidity: reduced mortality and morbidity

## [13CH3][13C](=O)C(=O)[O-].[Na+] [sodium pyruvate, α-Ketopropionic acid-2,3-13C2 sodium salt]
[1]
  duration of tooth sensitivity: ≤ 24 h
[1]; end of whitening procedure
  subjects experiencing tooth sensitivity after application of the desensitizer: 1 of 5
[10]; 6 patients with gingival lesions, treated only with sodium pyruvate
  burning sensation on the gingival margin: immediate relieve of the burning sensation
[10]; previously discolored (white) site on the gingival margin
  visual inspection of the gingiva: normal appearance of the gingiva
[11]
  stability: relative stability
  water solubility: high water solubility

## [F][Sn][F] [stannous fluoride]
[1]
  duration of tooth sensitivity: over 24 hours
[1]; end of whitening procedure
  members of the group experiencing tooth sensitivity: 100%
